Reference: US20120115872A1, “COMBINATION OF A SODIUM-PROTON EXCHANGER INHIBITOR AND OF A DIHYDRO-1,3,5-TRIAZINE AMINE DERIVATIVE” (Merck Patent GMBH, priority 2009, published 2012)

Key:
Assay type in all cases: cell-based
[1] = system: human dermal microvascular endothelial cell line HMEC-1; assay: Mitochondrial membrane potential (TMRM probe, confocal microscopy) in HMEC-1 cells under ischaemia/reperfusion
Method: The immortalized human dermal microvascular endothelial cell line HMEC-1 was used. […] They were analysed by confocal microscopy before the treatment, after 60 minutes of ischaemia, after 90 minutes of reperfusion and after 120 minutes of reperfusion.

[2] = system: complex I of the endothelial cell respiratory chain; assay: Production of ROS by complex I of the endothelial cell respiratory chain; settings: endothelial cells; by inhibiting reverse electron flow
[3] = system: mitochondrial transient permeability pore (TPP); assay: Opening of the mitochondrial transient permeability pore (TPP); settings: during ischaemia and/or reperfusion events

What does the source list for `CC1N=C(N)NC(N(C)C)=N1` (stereo not shown) [E 008]?
mitochondrial membrane potential after reperfusion ([1]; HMEC-1, 30 min pre-incubation, 60 min ischaemia, reperfusion 90 and 120 min, TMRM 30 nM): protected against the damage induced by the reperfusion; loss of potential of the mitochondrial membrane ([1]; during ischaemia and/or reperfusion events): prevent the loss of potential of the mitochondrial membrane; production of ROS by complex I of the respiratory chain [2]: reduce the production of ROS; opening of the mitochondrial transient permeability pore (TPP) [3]: reduce the opening of the mitochondrial transient permeability pore (TPP)
